Here are results for 24 compounds from patent US11578061B2, “Inhibitors of LRRK2 kinase” (Halia Therapeutics, Inc., priority 2021, dated 2023).

The assay concerns the target recombinant human LRRK2 (catalytic domain only [amino acids 970-2527], GST-tagged) (Homo sapiens (Human), UniProt Q5S007). Description: LRRK2 Enzymatic Assay. It counts as biochemical. Particulars: LRRKtide substrate, [32P]-ATP. The procedure, abridged: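 GST-tagged catalytic domain (aa 970-2527) at 30 nM with 20 μM LRRKtide in HEPES pH 7.5/MgCl2 buffer, 1% DMSO; compounds (10 μM to 0.5 nM) preincubated 20 min, then [32P]-ATP added for 2 h at room temperature. P81 phosphocellulose capture; activity as % of vehicle, IC50 by curve fit.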

Sequence of recombinant human LRRK2 (catalytic domain only [amino acids 970-2527], GST-tagged) (Q5S007 970-2527): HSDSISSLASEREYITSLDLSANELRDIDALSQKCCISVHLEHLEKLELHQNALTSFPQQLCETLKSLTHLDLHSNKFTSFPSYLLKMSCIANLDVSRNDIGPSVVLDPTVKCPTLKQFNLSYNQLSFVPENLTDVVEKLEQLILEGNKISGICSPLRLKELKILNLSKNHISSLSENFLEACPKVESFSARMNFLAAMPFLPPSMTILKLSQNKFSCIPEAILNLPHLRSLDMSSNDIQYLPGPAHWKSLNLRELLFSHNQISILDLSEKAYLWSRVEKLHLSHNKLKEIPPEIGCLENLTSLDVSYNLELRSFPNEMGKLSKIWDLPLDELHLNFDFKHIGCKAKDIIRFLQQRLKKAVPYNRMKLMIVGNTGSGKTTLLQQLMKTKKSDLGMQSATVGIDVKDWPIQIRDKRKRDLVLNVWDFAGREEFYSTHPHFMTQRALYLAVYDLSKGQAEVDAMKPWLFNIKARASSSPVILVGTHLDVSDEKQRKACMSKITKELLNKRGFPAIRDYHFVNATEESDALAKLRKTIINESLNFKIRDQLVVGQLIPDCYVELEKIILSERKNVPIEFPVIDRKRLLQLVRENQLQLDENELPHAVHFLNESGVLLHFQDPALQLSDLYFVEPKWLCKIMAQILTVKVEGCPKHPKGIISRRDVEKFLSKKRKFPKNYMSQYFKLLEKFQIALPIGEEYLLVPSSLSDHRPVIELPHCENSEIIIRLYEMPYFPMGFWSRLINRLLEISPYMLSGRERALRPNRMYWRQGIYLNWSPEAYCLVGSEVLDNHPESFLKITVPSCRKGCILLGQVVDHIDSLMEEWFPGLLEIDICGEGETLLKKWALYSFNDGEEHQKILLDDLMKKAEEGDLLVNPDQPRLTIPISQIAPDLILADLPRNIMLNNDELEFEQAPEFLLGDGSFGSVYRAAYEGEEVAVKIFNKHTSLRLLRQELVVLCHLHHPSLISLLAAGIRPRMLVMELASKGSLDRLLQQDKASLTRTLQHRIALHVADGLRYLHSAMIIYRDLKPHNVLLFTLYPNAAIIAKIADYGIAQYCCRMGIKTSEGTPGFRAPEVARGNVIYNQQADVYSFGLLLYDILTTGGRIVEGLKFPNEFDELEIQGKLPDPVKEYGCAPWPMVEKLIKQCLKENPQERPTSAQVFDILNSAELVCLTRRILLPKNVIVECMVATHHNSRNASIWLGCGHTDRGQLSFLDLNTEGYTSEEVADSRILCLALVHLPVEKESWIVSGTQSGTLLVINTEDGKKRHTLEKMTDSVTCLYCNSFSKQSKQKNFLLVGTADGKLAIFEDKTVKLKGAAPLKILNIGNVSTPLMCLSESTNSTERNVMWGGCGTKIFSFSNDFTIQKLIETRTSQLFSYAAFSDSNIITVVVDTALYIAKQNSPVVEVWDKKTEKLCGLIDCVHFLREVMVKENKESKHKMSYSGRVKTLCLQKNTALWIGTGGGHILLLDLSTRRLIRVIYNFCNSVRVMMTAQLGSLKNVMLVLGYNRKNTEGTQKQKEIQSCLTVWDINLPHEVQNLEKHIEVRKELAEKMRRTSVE

Usually IC50 stands for the concentration that inhibits the measured activity by half. For the compound `C[C@@H]1CN(c2ccc(Nc3ncc(F)c(OCC4CCC(C#N)CC4)n3)cc2)C[C@H](C)O1` (mixture of isomers) [Example 273, 4-(((2-((4-((2S,6R)-2,6-dimethylmorpholino)phenyl)amino)-5-fluoropyrimidin-4-yl)oxy)methyl)cyclohexane-1-carbonitrile], the IC50 was below 50 nM.
As for `CC(C)n1cc(Nc2ncc(F)c(OC[C@H]3CC[C@H](O)CC3)n2)cn1` [Example 218, (1R,4R)-4-(((5-fluoro-2-((1-isopropyl-1H-pyrazol-4-yl)amino)pyrimidin-4-yl)oxy)methyl)cyclohexan-1-ol], the figure is 50 to 200 nM; as for `Cc1nn(C(C)(C)C#N)cc1Nc1nc(Cl)c(F)c(OC[C@H]2CC[C@H](O)CC2)n1` [Example 248, 2-(4-((4-chloro-5-fluoro-6-(((1R,4R)-4-hydroxycyclohexyl)methoxy)pyrimidin-2-yl)amino)-3-methyl-1H-pyrazol-1-yl)-2-methylpropanenitrile], above 400 nM; as for `CC(=O)N[C@H]1CC[C@H](COc2nc(Nc3cn(C4CC4)nc3Cl)ncc2F)CC1` [Example 203, N-((1R,4R)-4-(((2-((3-chloro-1-cyclopropyl-1H-pyrazol-4-yl)amino)-5-fluoropyrimidin-4-yl)oxy)methyl)cyclo-hexyl)acetamide], below 50 nM.
As for `COc1nn(C(C)C)cc1Nc1ncc(F)c(OC[C@H]2CC[C@H](NC(C)=O)CC2)n1` [Example 207, N-((1R,4R)-4-(((5-fluoro-2-((1-isopropyl-3-methoxy-1H-pyrazol-4-yl)amino)pyrimidin-4-yl)oxy)methyl)cyclo-hexyl)acetamide], the figure is 50 to 200 nM; as for `CC(C)n1cc(Nc2ncc(F)c(OCC3CCNCC3(F)F)n2)cn1` (stereo not drawn) [Example 164, 4-((3,3-difluoropiperidin-4-yl)methoxy)-5-fluoro-N-(1-isopropyl-1H-pyrazol-4-yl)pyrimidin-2-amine], below 50 nM; as for `O=C(N[C@H]1CC[C@@H](COc2nc(Nc3ccc(N4CCOCC4)cc3)ncc2Cl)C1)C(F)F` [Example 102, N-((1S,3R)-3-(((5-chloro-2-((4-morpholino-phenyl)amino)pyrimidin-4-yl)oxy)methyl)cyclopentyl)-2,2-difluoro-acetamide], below 50 nM.
For the compound `N[C@H]1CC[C@H](COc2ccnc(Nc3ccn(CC(F)F)n3)n2)CC1` [Example 5, 4-(((1R,4R)-4-aminocyclohexyl)methoxy)-N-(1-(2,2-difluoroethyl)-1H-pyrazol-3-yl) pyrimidin-2-amine], the IC50 lay within 50 to 200 nM.
For `C[C@@H]1CN(c2ccc(Nc3ncc(F)c(OCC4CCNCC4(F)F)n3)cc2)C[C@H](C)O1` (stereo partly drawn) [Example 30, 4-((3,3-difluoropiperidin-4-yl)methoxy)-N-(4-((2S,6R)-2,6-dimethylmorpholino)phenyl)-5-fluoropyrimidin-2-amine] the value was below 50 nM; for `Fc1cnc(Nc2ccc(N3CCOCC3)cc2)nc1OCC1CCNCC1F` (stereo not drawn) [Example 166, 5-fluoro-4-((3-fluoropiperidin-4-yl)methoxy)-N-(4-morpholinophenyl) pyrimidin-2-amine], below 50 nM; for `COc1nn(C(C)C)cc1Nc1ncc(F)c(OC[C@H]2CC[C@H](O)CC2)n1` [Example 244, (1R,4R)-4-(((5-fluoro-2-((1-isopropyl-3-methoxy-1H-pyrazol-4-yl)amino)pyrimidin-4-yl)oxy)methyl)cyclohexan-1-ol], above 400 nM.
In the case of `FC(F)(F)CN[C@H]1CC[C@H](COc2ccnc(Nc3ccc(N4CCOCC4)cc3)n2)CC1` [Example 104, N-(4-morpholino-phenyl)-4-(((1R,4R)-4-((2,2,2-trifluoroethyl)amino)cyclohexyl)methoxy) pyrimidin-2-amine], the IC50 is 50 to 200 nM.
In the case of `Cc1nn(C(C)(C)C#N)cc1Nc1ncc(F)c(OC[C@H]2CC[C@@H](O)CC2)n1` [Example 126, 2-(4-((5-fluoro-4-(((1S,4S)-4-hydroxycyclohexyl)methoxy)pyrimidin-2-yl)amino)-3-methyl-1H-pyrazol-1-yl)-2-methylpropanenitrile], the IC50 was below 50 nM.
As for `CC(=O)N[C@H]1CC[C@H](COc2nc(Nc3cnn(CCF)c3)ncc2F)CC1` [Example 189, N-((1R,4R)-4-(((5-fluoro-2-((1-(2-fluoroethyl)-1H-pyrazol-4-yl)amino)pyrimidin-4-yl)oxy)methyl)cyclo-hexyl)acetamide], the figure is below 50 nM; as for `C[C@@H]1CN(c2ccc(Nc3nccc(OCC4CCC(O)CC4)n3)cc2)C[C@H](C)O1` (stereo partly drawn) [Example 118, 4-(((2-((4-((2S,6R)-2,6-dimethylmorpholino)phenyl)amino)pyrimidin-4-yl)oxy)methyl)cyclohexan-1-ol], 50 to 200 nM; as for `Cc1nn(C(C)(C)C#N)cc1Nc1ncc(F)c(OCC2(F)CCNCC2)n1` [Example 25, 2-(4-((5-fluoro-4-((4-fluoropiperidin-4-yl)methoxy)pyrimidin-2-yl)amino)-3-methyl-1H-pyrazol-1-yl)-2-methylpropanenitrile], below 50 nM.
As for `O[C@H]1CC[C@H](COc2nc(Nc3cnn(CCF)c3)ncc2F)CC1` [Example 224, (1R,4R)-4-(((5-fluoro-2-((1-(2-fluoroethyl)-1H-pyrazol-4-yl)amino)pyrimidin-4-yl)oxy)methyl)cyclohexan-1-ol], the figure is below 50 nM; as for `CC(C)(O)[C@H]1CC[C@H](COc2nc(Nc3ccc(N4CCOCC4)cc3)ncc2F)CC1` [Example 144, 2-((1R,4R)-4-(((5-fluoro-2-((4-morpholinophenyl)amino)pyrimidin-4-yl)oxy)methyl)cyclohexyl)propan-2-ol], 50 to 200 nM; as for `CC(=O)N1CCC(COc2nc(Nc3cn(C(C)(C)C#N)nc3C)ncc2Cl)C(F)(F)C1` (stereo not drawn) [Example 96, 2-(4-((4-((1-acetyl-3,3-difluoropiperidin-4-yl)methoxy)-5-chloropyrimidin-2-yl)amino)-3-methyl-1H-pyrazol-1-yl)-2-methylpropanenitrile], below 50 nM.
As for `Cc1nc(Nc2ccc(N3CCOCC3)cc2)nc(OC[C@H]2CC[C@H](O)CC2)c1F` [Example 265, (1R,4R)-4-(((5-fluoro-6-methyl-2-((4-morpholinophenyl)amino)pyrimidin-4-yl)oxy)methyl)cyclohexan-1-ol], the figure is above 400 nM; as for `CC(=O)N[C@H]1CC[C@H](COc2nc(Nc3cnn(C)c3)ncc2F)CC1` [Example 183, N-((1R,4R)-4-(((5-fluoro-2-((1-methyl-1H-pyrazol-4-yl)amino)pyrimidin-4-yl)oxy)methyl)cyclo-hexyl)acetamide], 50 to 200 nM.
With `O=C(N[C@H]1CC[C@H](COc2ccnc(Nc3ccc(N4CCOCC4)cc3)n2)CC1)C(F)(F)F` [Example 98, 2,2,2-trifluoro-N-((1R,4R)-4-(((2-((4-morpholino-phenyl)amino)pyrimidin-4-yl)oxy)methyl)cyclohexyl) acetamide], the IC50 fell in the range of 50 to 200 nM.
Regarding `COc1cnc(Nc2ccc(N3CCOCC3)cc2)nc1OCC1CCC(F)(F)CC1` [Example 156, 4-((4,4-difluorocyclohexyl)methoxy)-5-methoxy-N-(4-morpholinophenyl)pyrimidin-2-amine], the IC50 lay within 50 to 200 nM.
On to `CCn1cc(Nc2ncc(F)c(OC[C@H]3CC[C@H](O)CC3)n2)cn1` [Example 217, (1R,4R)-4-(((2-((1-ethyl-1H-pyrazol-4-yl)amino)-5-fluoropyrimidin-4-yl)oxy)methyl)cyclohexan-1-ol], for which the IC50 was 50 to 200 nM.
